{"source": "paper PMC3509269", "about": "(The Analyst, 2012)", "system": "Calf thymus DNA", "format": "biochemical", "conditions": "0.2 mM, negative control, under the assay conditions (Fig. S8)", "data": [{"smiles": "C1CCOC1", "note": "[THF]", "values": [{"measurement": "SWV peak increases (DNA damage signal)", "result": "did not show SWV peak increases"}]}]}
